# What was measured:
# [1] = test system: Kelly, NGP and SIMA NB cells; test: Cell Titer-Glo cell viability / growth assay; type: cell-based, human; settings: 6 days, compared with (S,S) stereoisomer and A485
# Protocol: (§1) Cells were infected with lentiviruses encoding sgRNAs or treated with compounds as described. Colony assays were performed by replating cells at 500 cells per well in 6-well dishes and grown in regular growth media for 10 d before 100% methanol fixation, 0.05% crystal violet staining, and quantitation. Experiments were completed in triplicate; data shown are the average of three independent experiments. Cell Titer-Glo® assay was performed as per the manufacturer's instructions (Promega®). Briefly, 1000 cells/well were plated into 96-well plates and treated with a range of compound dosing. Cell viability was measured at the noted time points based on luminescence by the Cell Titer-Glo® assay (Promega®) and read on an Envision 2104 (PerkinElmer®, USA) according to the manufacturer's protocol.
# [2] = molecular target: T1, EP300, CRBN and CBP in Kelly cell lysates (Homo sapiens, UniProt Q09472+Q96SW2); test: Biotin-JQAD1 pulldown from Kelly cell lysates (streptavidin purification, western blotting); type: binding; settings: Kelly cell lysates co-treated with excess pomalidomide
# T1 construct: added to 500 μg of whole Kelly cell lysate; endogenous in cells; host or cells: Kelly neuroblastoma cells (whole cell lysate)
# T1 sequence (Q09472 2-2414 limits assumed): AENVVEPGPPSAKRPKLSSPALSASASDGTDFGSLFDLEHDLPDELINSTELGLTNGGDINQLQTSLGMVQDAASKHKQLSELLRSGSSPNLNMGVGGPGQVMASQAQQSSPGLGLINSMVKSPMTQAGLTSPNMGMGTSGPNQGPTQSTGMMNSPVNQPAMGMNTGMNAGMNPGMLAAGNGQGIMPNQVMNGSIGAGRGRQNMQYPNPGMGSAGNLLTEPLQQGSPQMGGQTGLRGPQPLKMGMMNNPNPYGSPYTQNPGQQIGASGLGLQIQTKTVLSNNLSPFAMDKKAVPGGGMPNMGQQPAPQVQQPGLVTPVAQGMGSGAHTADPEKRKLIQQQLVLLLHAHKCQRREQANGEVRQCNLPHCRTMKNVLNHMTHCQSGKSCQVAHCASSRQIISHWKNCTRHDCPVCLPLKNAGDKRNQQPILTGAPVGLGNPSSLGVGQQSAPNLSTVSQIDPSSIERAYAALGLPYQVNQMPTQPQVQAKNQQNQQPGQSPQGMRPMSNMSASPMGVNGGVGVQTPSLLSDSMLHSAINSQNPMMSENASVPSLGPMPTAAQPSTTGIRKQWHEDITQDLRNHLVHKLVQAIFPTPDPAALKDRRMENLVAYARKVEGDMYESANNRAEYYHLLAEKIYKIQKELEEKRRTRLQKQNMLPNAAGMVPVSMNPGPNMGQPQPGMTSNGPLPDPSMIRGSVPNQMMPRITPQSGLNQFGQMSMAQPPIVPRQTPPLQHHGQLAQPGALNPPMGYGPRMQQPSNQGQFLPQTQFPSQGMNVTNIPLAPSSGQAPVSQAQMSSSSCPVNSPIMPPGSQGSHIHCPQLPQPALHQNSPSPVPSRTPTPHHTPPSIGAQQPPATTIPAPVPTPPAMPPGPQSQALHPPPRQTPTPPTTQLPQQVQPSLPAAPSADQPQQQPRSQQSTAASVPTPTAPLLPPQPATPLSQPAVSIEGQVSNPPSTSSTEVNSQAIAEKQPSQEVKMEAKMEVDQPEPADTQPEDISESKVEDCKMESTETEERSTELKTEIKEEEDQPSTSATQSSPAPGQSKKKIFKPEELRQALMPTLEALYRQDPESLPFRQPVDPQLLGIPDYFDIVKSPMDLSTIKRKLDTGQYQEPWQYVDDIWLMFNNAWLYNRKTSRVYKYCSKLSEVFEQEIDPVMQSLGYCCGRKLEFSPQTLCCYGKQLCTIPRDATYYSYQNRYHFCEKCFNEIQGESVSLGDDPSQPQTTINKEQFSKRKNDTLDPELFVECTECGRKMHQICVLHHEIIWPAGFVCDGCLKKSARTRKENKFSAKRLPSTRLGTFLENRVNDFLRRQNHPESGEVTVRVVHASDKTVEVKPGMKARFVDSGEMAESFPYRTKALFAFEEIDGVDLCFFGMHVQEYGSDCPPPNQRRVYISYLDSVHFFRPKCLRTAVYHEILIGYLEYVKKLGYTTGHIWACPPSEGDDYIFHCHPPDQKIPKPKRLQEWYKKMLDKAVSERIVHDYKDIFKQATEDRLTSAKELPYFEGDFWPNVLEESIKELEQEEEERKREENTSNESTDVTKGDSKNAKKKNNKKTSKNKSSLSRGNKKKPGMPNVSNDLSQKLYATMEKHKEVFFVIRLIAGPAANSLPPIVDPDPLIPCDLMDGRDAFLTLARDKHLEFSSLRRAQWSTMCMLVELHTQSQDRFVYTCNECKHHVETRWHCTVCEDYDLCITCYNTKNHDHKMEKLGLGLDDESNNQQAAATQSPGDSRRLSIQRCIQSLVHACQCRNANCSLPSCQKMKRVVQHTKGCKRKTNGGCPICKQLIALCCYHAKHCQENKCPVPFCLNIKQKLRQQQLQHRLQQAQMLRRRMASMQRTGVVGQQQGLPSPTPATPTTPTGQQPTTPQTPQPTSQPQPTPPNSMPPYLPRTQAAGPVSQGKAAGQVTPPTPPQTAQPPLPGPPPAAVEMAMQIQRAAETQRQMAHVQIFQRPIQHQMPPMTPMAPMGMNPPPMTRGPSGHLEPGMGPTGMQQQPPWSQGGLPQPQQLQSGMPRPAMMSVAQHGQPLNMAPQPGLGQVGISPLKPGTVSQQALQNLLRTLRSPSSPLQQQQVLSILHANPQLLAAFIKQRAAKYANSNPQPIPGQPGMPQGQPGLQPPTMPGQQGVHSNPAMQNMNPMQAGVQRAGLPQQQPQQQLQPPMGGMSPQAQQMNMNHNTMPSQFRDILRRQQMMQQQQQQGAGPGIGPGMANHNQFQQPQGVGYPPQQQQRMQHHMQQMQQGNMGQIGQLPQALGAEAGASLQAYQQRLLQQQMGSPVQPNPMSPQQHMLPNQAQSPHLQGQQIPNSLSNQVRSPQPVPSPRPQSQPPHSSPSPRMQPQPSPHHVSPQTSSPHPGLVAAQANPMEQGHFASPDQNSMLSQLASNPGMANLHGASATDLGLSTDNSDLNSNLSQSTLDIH
# T1 sequence (Q96SW2 whole entry): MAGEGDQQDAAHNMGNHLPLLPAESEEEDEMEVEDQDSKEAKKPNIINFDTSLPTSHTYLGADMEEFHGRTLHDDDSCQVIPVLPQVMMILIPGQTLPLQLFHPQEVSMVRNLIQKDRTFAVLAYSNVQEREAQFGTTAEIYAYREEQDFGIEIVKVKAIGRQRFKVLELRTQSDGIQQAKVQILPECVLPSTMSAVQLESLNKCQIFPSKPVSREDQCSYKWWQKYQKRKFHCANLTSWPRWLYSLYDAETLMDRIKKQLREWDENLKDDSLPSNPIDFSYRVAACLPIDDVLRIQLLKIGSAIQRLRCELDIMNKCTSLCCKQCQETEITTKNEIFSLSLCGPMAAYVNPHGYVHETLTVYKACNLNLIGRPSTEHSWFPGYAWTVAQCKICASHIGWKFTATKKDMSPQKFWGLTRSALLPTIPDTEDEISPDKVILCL
# T1 sequence (Q16531 whole entry partner): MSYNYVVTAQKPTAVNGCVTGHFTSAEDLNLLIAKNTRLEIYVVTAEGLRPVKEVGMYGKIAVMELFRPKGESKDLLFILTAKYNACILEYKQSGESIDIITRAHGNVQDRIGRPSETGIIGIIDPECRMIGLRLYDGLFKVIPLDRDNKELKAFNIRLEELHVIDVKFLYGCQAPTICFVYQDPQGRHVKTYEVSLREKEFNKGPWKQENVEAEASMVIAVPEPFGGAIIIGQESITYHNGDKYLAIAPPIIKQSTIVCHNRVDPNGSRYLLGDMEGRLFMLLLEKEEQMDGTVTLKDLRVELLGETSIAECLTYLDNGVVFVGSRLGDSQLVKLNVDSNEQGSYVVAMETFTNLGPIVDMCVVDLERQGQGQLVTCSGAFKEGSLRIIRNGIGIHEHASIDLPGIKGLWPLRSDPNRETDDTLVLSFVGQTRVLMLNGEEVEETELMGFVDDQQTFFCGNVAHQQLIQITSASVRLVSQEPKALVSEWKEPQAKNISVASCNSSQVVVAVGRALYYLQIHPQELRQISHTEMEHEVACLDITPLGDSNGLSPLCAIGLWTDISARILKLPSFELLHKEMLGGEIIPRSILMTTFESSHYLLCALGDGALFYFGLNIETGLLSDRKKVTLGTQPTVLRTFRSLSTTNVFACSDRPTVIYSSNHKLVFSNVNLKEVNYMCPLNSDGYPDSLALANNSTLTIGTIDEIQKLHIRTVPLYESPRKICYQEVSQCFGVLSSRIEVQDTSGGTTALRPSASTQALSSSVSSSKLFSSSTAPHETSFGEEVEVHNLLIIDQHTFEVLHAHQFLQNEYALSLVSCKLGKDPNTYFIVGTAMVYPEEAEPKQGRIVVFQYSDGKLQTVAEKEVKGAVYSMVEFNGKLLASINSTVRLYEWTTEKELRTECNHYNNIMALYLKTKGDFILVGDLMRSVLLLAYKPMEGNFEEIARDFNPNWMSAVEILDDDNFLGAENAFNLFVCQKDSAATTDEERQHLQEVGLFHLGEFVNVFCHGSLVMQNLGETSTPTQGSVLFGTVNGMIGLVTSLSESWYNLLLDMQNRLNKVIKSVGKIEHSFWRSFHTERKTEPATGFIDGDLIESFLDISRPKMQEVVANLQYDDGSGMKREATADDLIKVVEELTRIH
# Protocol: Biotin-JQAD1, synthesized below, was added to 500 μg of whole Kelly cell lysate prepared in immunoprecipitation (IP) lysis buffer (Pierce™ Biotechnology), and incubated for 16 h at 4° C. with end-over-end mixing. One hundred μL of high-capacity streptavidin agarose resin (Pierce™ Biotechnology) was packed into a 1.5 mL Eppendorf tube®, washed three times with cold PBS, prior to addition of cell lysate. Lysate was incubated at room temperature for 10 minutes prior to centrifugation and washing, followed by elution in NuPAGE™ LDS sample buffer with reducing agent (Thermo-Fisher Scientific). Samples were processed by sodium dodecyl sulphate-polyacrylamide gel electrophoresis (SDS-PAGE) as above and blotted using anti-EP300, anti-CRBN, or anti-CBP antibodies.
# [3] = test system: cleaved caspase-3 and cleaved PARP1; test: Western blotting of apoptosis markers; type: cell-based, human; settings: Kelly (1 μM) and NGP (2.5 μM) cells, 12-36 h
# Protocol: Cells growing in culture were lysed for whole cell lysates as described in Durbin et al. Nat. Genet. 50:1240-1246 (2018) and Wang et al. Nat. Commun. 10:5622 (2019). Nuclear lysates were prepared using the NE-PER® nuclear lysate kit (Thermo Scientific™) according to the manufacturer's protocol. Chromatin lysates were prepared with the total histone extraction kit (Epigentek). Briefly, equivalent amounts of protein were resolved by western blotting using 4-12% Bis-Tris NuPAGE™ gels (Thermo-Fisher Scientific) prior to transfer, and immunoblotting using primary antibodies to: MYCN (1:1000, Cell Signaling Technology®), H3K27ac (1:1000, Abcam), total H3 (1:1000, Cell Signaling Technology®), EP300 (1:1000, Abcam), CBP (1:500, Cell Signaling Technology®), Cas9 (1:1000, Cell Signaling Technology®), cleaved-PARP1 (1:1000, Cell Signaling Technology), cleaved Caspase-3 (1:1000, Cell Signaling Technology®), β-actin (1:1000, Cell Signaling Technology®), GATA3 (1:1000, EMD Millipore™), TFAP2β (1:1000, Cell Signaling Technology®), Vinculin (1:1000, EMD Millipore™), CRBN (1:1000, Cell Signaling Technology®), HAND2 (1:1000, Santa Cruz Biotechnology). Secondary antibodies were horseradish peroxidase (HRP)-conjugated anti-rabbit or anti-mouse (1:5000, Santa Cruz Biotechnology), incubated prior to exposure to enhanced chemiluminescence reagents (GE, Amersham). For immunoprecipitation, equal amounts of protein were diluted in buffer C as described in Mansour et al. Science 346:1373-1377 (2014) and incubated with antibodies covalently conjugated to Dynabeads™ M-270 beads (Thermo-Fisher Scientific) overnight according to the manufacturer's directions. Antibodies used included: H3K27ac, EP300 (Abcam), CBP, TFAP2β (Cell Signaling Technology®), rabbit immunoglobulin G (IgG) (Santa Cruz Biotechnology®). Immunoprecipitated protein was isolated as per the manufacturer's directions and subjected to western blotting, as described above, or mass spectrometry.
# [4] = test system: Kelly-Cas9 control or CRBN knockout cells; test: CellTiter-Glo assay of Kelly-Cas9 control or CRBN knockout cells; type: cell-based, human; settings: range of doses, seven days
# Protocol: as §1
# sgRNAs targeting individual genes were subcloned by standard methodologies within pLKO.5-EFGP. Kelly, SIMA, BE2C, and NGP cells were infected with lenticas9 followed by blasticidin selection. Stable expression of cas9 was established by western blotting of protein lysates using cas9 antibody (Cell Signaling Technology®). Following infection of pLKO.5-EGFP-sgRNA lentivirus, cells were cultured for the identified times prior to evaluation. BE2C cells were infected with pLC-zsgreen or pLC-CRBN lentiviruses and selected using 500 μg/mL hygromycin (Invitrogen™)
# CBP = molecular target: T2, CBP (Homo sapiens, UniProt Q92793); test: Immunohistochemistry of CBP in Kelly cell xenografts; type: in vivo; settings: 40 mg/Kg once daily
# T2 construct: Cells growing in culture were lysed for whole cell lysates; endogenous in cells; host or cells: Kelly, NGP, SIMA, BE2C neuroblastoma cells; Kelly xenografts in NSG mice
# Protocol: Separately, eight animals were xenografted as described above, and treated with vehicle (n=4) or JQAD1 (n=4) at 40 mg/kg IP daily for 14 days. These animals were sacrificed at day 14, following which tumor was extracted, and divided for immunohistochemical analysis or analysis of RNA expression by RNA sequencing (RNA-seq). Immunohistochemistry was performed on the Leica® Bond™ III automated staining platform. Antibody EP300 from Cell Signaling Technology®, catalog number 86377, clone D8Z4E, was run at 1:50 dilution using the Leica® Biosystems Refine Detection Kit with citrate antigen retrieval. Antibody KAT3A/CBP (catalog number ab2832, polyclonal, Abcam) was run at 1:200 using the Leica® Biosystems Refine Detection Kit with ethylenediaminetetraacetic acid (EDTA) antigen retrieval.
# 557 cancer cell lines = test: PRISM pooled barcoded 5-day cell viability screen; type: cell-based, human
# Protocol: PRISM barcoded pooled screening was performed using JQAD1 in 578 barcoded cell lines as described in Corsello et al. Nat. Med. 23:405-8 (2017) and Corsello et al. Nat Cancer 1:235-48 (2020). Some cell lines included in the screen were genetically engineered to express exogenous genes, and these cell lines were removed to yield 557 cell lines. Briefly, cells in pools of 20-25 were thawed and plated into 384-well plates (1250 cells/well for adherent cell pools, 2000 cells/well for suspension or mixed suspension/adherent cell pools) containing compound (top concentration: 10 μM, 8-point, threefold dilution). All conditions were tested in triplicate. Cells were lysed after 5 days of treatment and mRNA-based Luminex® detection of barcode abundance from lysates was carried out as described in Corsello et al. Cancer 1:235-48 (2020). Luminex median fluorescence intensity (MFI) data was input to a standardized R pipeline to generate viability estimates relative to vehicle treatment for each cell line and treatment condition, and to fit dose-response curves from viability data.
smiles,measurement,setting,value
"C[C@H](N(Cc1ccc(F)cc1)C(=O)CN1C(=O)O[C@@]2(CCc3cc(NC(=O)CCCCCCCCCCCNc4ccc5c(c4)C(=O)N(C4CCC(=O)NC4=O)C5=O)ccc32)C1=O)C(F)(F)F (stereo partly drawn) [JQAD1, 12-((2-(2,6-dioxopiperidin-3-yl)-1,3-dioxoisoindolin-5-yl)amino)-N-((R)-3′-(2-((4-fluorobenzyl)((S)-1,1,1-trifluoropropan-2-yl)amino)-2-oxoethyl)-2′,4′-dioxo-2,3-dihydrospiro[indene-1,5′-oxazolidin]-5-yl)dodecanamide]",IC50 in intact NB cells (comparison),[1],lowest IC50 concentration
same,effect of excess pomalidomide on the interaction,[2],"partial loss of the interaction between JQAD1, CRBN, and EP300"
same,apoptosis: cleavage of caspase-3 and PARP1,[3],induction of cellular apoptosis marked by cleavage of caspase-3 and PARP1
same,growth of CRBN-knockout Kelly cells,[4],resistant
same,growth of control-edited Kelly cells,[4],potently killed
same,CBP immunostaining of tumors,CBP,CBP immunostaining was retained
same,antineoplastic activity,"557 cancer cell lines; 5 days, 557 cancer cell lines",antineoplastic activity across multiple tumor lineages
same,area under the curve (AUC) of the dose-response in growth-inhibited cell lines,"557 cancer cell lines; 5 days, top concentration 10 μM, some example cell lines within the majority of tumor lineages",< 0.85
same,relation of CRBN expression to AUC of the dose-response,557 cancer cell lines; CRBN expression from CCLE,higher expression levels of CRBN were correlated with higher JQAD1-mediated antineoplastic activity

# Reference: patent US20240156800A1, “EP300 DEGRADER AND USES THEREOF IN NEUROBLASTOMA” (DANA-FARBER CANCER INSTITUTE, INC., priority 2021, published 2024)
